Assay results as given in patent US20230152314A1, “LIPOCALIN-2 ASSAY FOR INTESTINAL ADAPTATION” (THE JOHNS HOPKINS UNIVERSITY, priority 2020, published 2023).
Entries after “also recorded” stand apart in the source; their conditions may differ.

Tests used:
WT SBR mice = assay: I3C (AHR agonist) supplementation in SBR mice: weight gain; format: in vivo, mouse; details: WT SBR mice vs DMSO-treated control, postoperative days 3-7, p=0.04 at day 7
From the text: In one experiment, AHR agonists are studied in our SBR model. The purpose of this experiment is to study AHR activation via a dietary supplement, which has tremendous potential as a translational approach. Under our ACUC-approved protocol, we will perform a 75% SBR on the same four groups [n=12 mice in each group] of C57Bl/6J mice: WT, LCN2-/-, AHR-/- and AHR-/-LCN2-/-. Sham-operated WT, LCN2-/-, AHR-/- and AHR-/-LCN2-/- C57Bl/6J mice [n=12 mice in each group] will serve as controls. Mice will be randomized to receive either the AHR agonist, indole-3-carbinol […]) (Sigma, 17256, St Louis, Mo.) at a dose of 15-20 mg/kg, dissolved in DMSO, or DMSO alone mixed into the liquid diet. The rodent liquid diet containing […] will be maintained for the duration of the postoperative period. Control mice will receive DMSO only. Mice will be weighed daily. One week later, the mice will be anesthetized for tissue collection and analyses performed.

[1] = tested on: WT SBR mice (75% SBR model of short bowel syndrome); assay: Rescue IL-22 therapy for SBR WT mice: body weight and villus length; format: in vivo, mouse
Experimental: Creation of a clinically relevant model of short bowel syndrome in the mouse. In our laboratory, we established the model previously described by Helmrath et al.^18 Briefly, the hair on the abdomen of the mouse was removed by depilatory creams, and the abdomen was scrubbed with three rounds of betadine, prior to making an incision. Through a 1.5 cm midline laparotomy, the small bowel was examined. The 75% SBR was performed by transecting 3 cm distal to the ligament of Treitz and 6 cm proximal to the cecum. The intervening proximal small bowel (approximately 18 cms) was removed. Intestinal continuity was restored with a primary end-to-end jejunoileal anastomosis using 8-0 Nylon suture. The sham operation (SHA) was performed by transecting the small bowel 6 cm proximal to the cecum and immediately creating a primary end-to-end ileoileal anastomosis. Subcutaneous closure was performed with a running absorbable 4-0 Vicryl suture. Cutaneous closure was completed by interrupted 4-0 silk sutures. All animals received 1 mL of saline subcutaneously before and immediately after procedure.
After surgery, mice were offered free access to water for the first 24 hours. Fresh rodent liquid diet was provided and body weight was measured daily. Bromodeoxyuridine (BrdU) (Invitrogen, 00-0103) was administered through intraperitoneal injection (ip) 24 hours before euthanasia. Intestinal permeability was evaluated with FITC-Dextran intestinal permeability assay as described below. Serum, intestinal issue, liver, and cecal content were collected after euthanasia.
Morphometric Analysis. The jejunum and ileum were fixed in 10% neutral buffered formalin for 24 hours. […] Villus length in jejunum and ileum was measured under light microscopy (EVOS FL Auto Imaging System). At least 30 well-oriented intact villi were counted per mouse.
Rescue IL-22 Therapy for SBR WT Mice. […] The relative abundance of Proteobacteria, Bacteroidetes, Firmicutes, Lactobacillus and Enterobacteriaceae of fecal microbiome and Reg3b and Reg3g genes in the intestine were assessed by q-PCR.

[2] = tested on: Proteobacteria, Bacteroidetes, Firmicutes of fecal microbiome; assay: Rescue IL-22 therapy: relative abundance of fecal microbiome groups by q-PCR; format: in vivo, mouse; details: WT SBR mice, POD 7, q-PCR
Experimental: (§1) Rescue IL-22 Therapy for SBR WT Mice. Following a 75% SBR, WT mice were treated daily for six days via intraperitoneal injections with either 100 μL PBS as control or 100 μL PBS containing 4 μg rmIL-22 (PeproTECH, 210-22) as treatment. At post-operative day (POD) 7, intestinal tissue and cecal contents were collected after euthanasia. The relative abundance of Proteobacteria, Bacteroidetes, Firmicutes, Lactobacillus and Enterobacteriaceae of fecal microbiome and Reg3b and Reg3g genes in the intestine were assessed by q-PCR.
(§2) Quantitative real-time PCR. Gene quantification was carried out with iTap Universal SYBR Green Supermix (Bio-rad, 172-5124, Hercules, Calif., USA) on a CFX96 Touch Real-time PCR system (Bio-rad) according to the manufacturer's instructions and calculated with 2^−ΔΔCT method. Thermal cycling was performed at 95° C. for 5 min, followed by 40 cycles at 95° C. for 15 s, 60° C. 10s, 72° C. for 30 s. Primers for transcriptional levels of Lcn2, IL-6.

[3] = tested on: Reg3b, Reg3g and Tnf-α genes in the intestine; assay: Rescue IL-22 therapy: transcriptional levels of intestinal genes by q-PCR; format: in vivo, mouse; details: WT SBR mice
Experimental: as §1
RNA Extraction and Reverse Transcription. Total RNA from tissue was extracted according to the manufacturer's instructions (QIAGEN, RNeasy Mini Kit, 74106). Genomic DNA was eliminated from RNA, and total RNA (0.5 μg) was reverse transcribed to cDNA with QuantiTect Reverse Transcription Kit according to the manufacturer's protocol (QIAGEN, 205311, Germantown, Md., USA).
as §2

Th22 cells = assay: Th22 cell differentiation with and without LCN2, IL-22 ELISA of supernatant; format: cell-based, mouse; details: rmLCN2 1 ug/mL, 5 days
Experimental: Naïve CD4^+ T Lymphocytes Isolation and Th22 cells Differentiation. We isolated naïve CD4+ T cells as previously described by Bedoya S K et al.^22 Briefly, splenic tissue was removed from 6-week old C57BL/6J male mice and ground into a single cell suspension under a sterile hood. Red blood cells (RBC) were removed by using ammonium-chloride-potassium (ACK) lysing buffer (Quality Biological, 118-156-101, Gaithersburg, Md., USA) at RT for 3 minutes. Naïve CD4+ T cells were isolated from total splenocyte by magnetic activated cell sorting (MACS) based on positive selection using CD4 (L3T4) MicroBeads (Miltenyi Biotec, 130-117-043, Bergisch-Gladbach, Germany) according to the manufacturer's instructions. The purity of naive CD4+ T cells was more than 97%, as measured by flow cytometry.
For Th22 cell differentiation, CD4+ T cells were stimulated in complete media (RPMI 1640 with 2 mM L-glutamine, 10% FBS, […] 1-ME, 100 U/ml penicillin-streptomycin) with plate-bound anti-CD3ε (Clone 145-2C11, 1 ug/mL, BD; 550275) and soluble anti-CD28 (Clone 37.51, 2 ug/ml, BD, 553295) for 5 days under polarizing condition for Th22 cells (IL-6 20 ng/mL, IL-β 10 ng/mL, TNF-α 10 ng/mL)^23 with and without mouse recombinant (rm) LCN2 (1 ug/mL, R&D, 1857-LC-050). Cell supernatant was collected for IL-22 ELISA analysis (Invitrogen, 88-7422-22) according to the manufacturer's instructions.

[4] = POD 7, compared to PBS-treated group
[5] = jejunum and colon, especially in the colon

OCc1c[nH]c2ccccc12 [I3C, indole-3-carbinol]
weight gain following SBR (WT SBR mice): increases; also recorded: significant increase

rmIL-22: recombinant mouse IL-22 (PeproTECH, 210-22), given intraperitoneally in PBS
body weight lost ([1]; POD 7, 4 μg rmIL-22 ip daily for six days): 7.5% | length of villi in ileum [1, 4]: no difference | length of villi in jejunum [1, 4]: significantly longer | relative abundance of Bacteroidetes [2]: increased | relative abundance of Firmicutes [2]: increased | relative abundance of Proteobacteria [2]: decreased | Reg3b transcriptional level [3, 5]: robust increase | Reg3g transcriptional level [3, 5]: robust increase | transcriptional levels of Tnf-α ([3]; jejunum, inflammation): increased

B1: LCN2: mouse recombinant (rm) LCN2 (R&D, 1857-LC-050) added to Th22 polarizing culture (protein, UniProt P11672 21-200, looked up)
Neutrophil …: QDSTQNLIPAPSLLTVPLQPDFRSDQFRGRWYVVGLAGNAVQKKTEGSFTMYSTIYELQENNSYNVTSILVRDQDQGCRYWIRTFVPSSRAGQFTLGNMHRYPQVQSYNVQVATTDYNQFAMVFFRKTSENKQYFKITLYGRTKELSPELKERFTRFAKSLGLKDDNIIFSVPTDQCIDN
levels of IL-22 protein expression from Th22 cells (Th22 cells): significantly decreased
